The target of one experiment is T1, Kir4.1/Kir5.1 (Homo sapiens, UniProt P78508+Q9NPI9).
T1 construct: expressed in transfected cells
T1 sequence (P78508 1-379): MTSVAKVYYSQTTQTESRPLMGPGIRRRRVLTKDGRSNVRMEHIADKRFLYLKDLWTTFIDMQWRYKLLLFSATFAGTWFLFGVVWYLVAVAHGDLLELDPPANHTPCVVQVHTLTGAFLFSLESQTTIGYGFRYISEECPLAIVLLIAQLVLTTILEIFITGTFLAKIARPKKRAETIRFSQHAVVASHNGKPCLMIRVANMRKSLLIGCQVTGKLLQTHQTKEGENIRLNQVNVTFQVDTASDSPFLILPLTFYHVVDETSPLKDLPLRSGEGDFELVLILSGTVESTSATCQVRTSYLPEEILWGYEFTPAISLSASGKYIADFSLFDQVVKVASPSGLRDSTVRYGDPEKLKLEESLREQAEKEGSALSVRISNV
T1 sequence (Q9NPI9 1-418): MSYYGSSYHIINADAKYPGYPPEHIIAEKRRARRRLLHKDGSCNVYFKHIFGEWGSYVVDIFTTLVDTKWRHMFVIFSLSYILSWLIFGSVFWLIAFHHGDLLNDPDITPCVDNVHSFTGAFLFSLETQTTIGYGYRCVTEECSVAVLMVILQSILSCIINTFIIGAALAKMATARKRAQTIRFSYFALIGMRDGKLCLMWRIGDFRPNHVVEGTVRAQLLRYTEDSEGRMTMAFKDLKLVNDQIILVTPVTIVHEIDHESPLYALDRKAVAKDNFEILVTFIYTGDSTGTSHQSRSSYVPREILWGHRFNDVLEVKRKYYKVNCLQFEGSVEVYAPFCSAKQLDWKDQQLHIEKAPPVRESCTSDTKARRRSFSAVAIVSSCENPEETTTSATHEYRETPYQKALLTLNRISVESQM
Briefly: Thallium flux selectivity assay Kir4.1/Kir5.1. The class given is cell-based. The procedure: (§1) Quantitative thallium flux assays of Kir6.1/SUR2B activity were performed essentially as described previously for Kir6.2/SUR1 ([Raphemot et al., 2014]; [Kharade et al., 2019]). Stable T-Rex-HEK293-Kir6.1/SUR2B cells or transiently transfected HEK293T cells were plated in polyamine-coated, clear-bottomed, black-walled 384-well plates and were cultured (37°C/5% CO2) overnight in Dulbecco’s modified Eagle’s medium (Gibco, Carlsbad, CA, 11995-065) containing 10% FBS (2 mM Penicillin-Streptomycin). The following day, cells were washed with assay buffer (i.e., Hanks’ balanced salt solution/20 mM HEPES) and loaded for 1 hour with thallium sensor dye Brilliant Thallium (Ion Bioscience, San Marcos, TX) at room temperature. Dye-loaded cells were washed with assay buffer and transferred to a Panoptic Kinetic Imaging Plate Reader (Wavefront Bioscience, Franklin, TN). Control and test compound treatments were for 4 minutes prior to adding 0.5 mM chloride-free thallium stimulus buffer (Ion Bioscience) to initiate thallium flux. […] Selectivity assays against other Kir channels were performed essentially as described previously ([Kharade et al., 2018]; [McClenahan et al., 2022]).

Another experiment addresses T2, Kir3.1/Kir3.4 (Homo sapiens, UniProt P48544+P48549).
T2 construct: expressed in transfected cells
T2 sequence (P48549 1-501): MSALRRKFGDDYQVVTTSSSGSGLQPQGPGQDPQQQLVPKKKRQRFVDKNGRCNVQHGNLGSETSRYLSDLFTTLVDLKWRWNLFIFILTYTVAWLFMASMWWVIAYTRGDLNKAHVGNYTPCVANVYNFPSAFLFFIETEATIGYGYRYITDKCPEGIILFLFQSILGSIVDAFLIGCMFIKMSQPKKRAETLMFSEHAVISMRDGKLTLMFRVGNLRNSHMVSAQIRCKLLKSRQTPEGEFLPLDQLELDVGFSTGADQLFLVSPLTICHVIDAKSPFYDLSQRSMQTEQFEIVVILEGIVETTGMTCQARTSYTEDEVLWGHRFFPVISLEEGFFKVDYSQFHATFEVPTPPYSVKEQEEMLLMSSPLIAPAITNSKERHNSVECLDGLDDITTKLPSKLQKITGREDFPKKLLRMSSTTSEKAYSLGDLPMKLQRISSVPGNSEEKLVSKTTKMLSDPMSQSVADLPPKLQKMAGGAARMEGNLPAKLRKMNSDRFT
T2 sequence (P48544 1-419): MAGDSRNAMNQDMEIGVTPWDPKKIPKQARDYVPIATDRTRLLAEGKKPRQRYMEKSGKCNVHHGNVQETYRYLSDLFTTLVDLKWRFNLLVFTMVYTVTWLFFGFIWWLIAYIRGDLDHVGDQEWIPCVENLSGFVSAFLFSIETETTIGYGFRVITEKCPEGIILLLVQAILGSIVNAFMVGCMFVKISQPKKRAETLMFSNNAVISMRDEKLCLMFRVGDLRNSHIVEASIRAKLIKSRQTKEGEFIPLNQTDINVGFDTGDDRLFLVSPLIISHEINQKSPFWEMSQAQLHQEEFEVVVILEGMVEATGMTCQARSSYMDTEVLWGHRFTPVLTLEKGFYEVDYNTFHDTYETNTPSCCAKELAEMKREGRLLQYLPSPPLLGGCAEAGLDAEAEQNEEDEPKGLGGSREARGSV
As to the kind of experiment: Thallium flux selectivity assay Kir3.1/Kir3.4. The format is cell-based. The procedure:
as §1

Structures are written as SMILES.

As for `Cc1nc(-c2cccs2)sc1CNC(=O)Nc1cccs1` [VU0542270], the IC50 against Kir4.1/Kir5.1 and against Kir3.1/Kir3.4 was more than 30 µM each time.
